Consider 18 molecules from patent publication US11834453B2, “Substituted pyrimido[5,4-d]pyrimidines as HER2 inhibitors” (Array BioPharma Inc., priority 2020, dated 2023).

Broadly, the IC50 is the concentration at which inhibition is half-maximal.

The target in one test is ErbB2 WT (Homo sapiens (Human), UniProt P04626). Briefly: ErbB enzyme assay (CisBio HTRF KinEASE-TK), Assay 2. The class given is biochemical. Here is the method:
Compound potencies were determined using CisBio's HTRF Kinease-TK assay technology. The kinases were incubated with 250 nM TK-substrate biotin (CisBio, part of cat #62TK0PEC) at 1 mM ATP along with test compounds in a buffer consisting of 25 mM HEPES, pH 7.4, 10 mM MgCl2, 0.01% Triton X-100, and 2% DMSO in a volume of 8 μL. […] After 30-minute incubation at 22° C., the reaction was quenched by adding 8 μL of quench solution containing 62.5 nM Sa-XL665 and 0.25× TK-Ab-Cryptate in HTRF detection buffer (all from CisBio, part of cat #62TK0PEC). After a 1-hour incubation at 22° C., the extent of reaction was determined using a PerkinElmer EnVision multimode plate reader via HTRF dual wavelength detection, and the percent of control (POC) was calculated using a ratiometric emission factor. One hundred POC was determined using DMSO only samples (no compound present), and 0 POC was determined using pre-quenched control reactions.
(§1) Enzyme lots and concentration used are in Table 2.
On the technique in general: In TR-FRET formats the signal depends on donor and acceptor labels being close together.

The target of test [1] is ErbB2 insYVMA (HER2-YVMA, SEQ ID NO: 2) (Homo sapiens, UniProt P04626, INS775YVMA/P1170A). Nature of the test: biochemical. The conditions noted are these: ErbB2 insYVMA enzyme assay; read-out: Assay 1 IC50.
Sequence of ErbB2 insYVMA (HER2-YVMA, SEQ ID NO: 2) (P04626 with tags, fused parts or gaps INS775YVMA/P1170A limits assumed): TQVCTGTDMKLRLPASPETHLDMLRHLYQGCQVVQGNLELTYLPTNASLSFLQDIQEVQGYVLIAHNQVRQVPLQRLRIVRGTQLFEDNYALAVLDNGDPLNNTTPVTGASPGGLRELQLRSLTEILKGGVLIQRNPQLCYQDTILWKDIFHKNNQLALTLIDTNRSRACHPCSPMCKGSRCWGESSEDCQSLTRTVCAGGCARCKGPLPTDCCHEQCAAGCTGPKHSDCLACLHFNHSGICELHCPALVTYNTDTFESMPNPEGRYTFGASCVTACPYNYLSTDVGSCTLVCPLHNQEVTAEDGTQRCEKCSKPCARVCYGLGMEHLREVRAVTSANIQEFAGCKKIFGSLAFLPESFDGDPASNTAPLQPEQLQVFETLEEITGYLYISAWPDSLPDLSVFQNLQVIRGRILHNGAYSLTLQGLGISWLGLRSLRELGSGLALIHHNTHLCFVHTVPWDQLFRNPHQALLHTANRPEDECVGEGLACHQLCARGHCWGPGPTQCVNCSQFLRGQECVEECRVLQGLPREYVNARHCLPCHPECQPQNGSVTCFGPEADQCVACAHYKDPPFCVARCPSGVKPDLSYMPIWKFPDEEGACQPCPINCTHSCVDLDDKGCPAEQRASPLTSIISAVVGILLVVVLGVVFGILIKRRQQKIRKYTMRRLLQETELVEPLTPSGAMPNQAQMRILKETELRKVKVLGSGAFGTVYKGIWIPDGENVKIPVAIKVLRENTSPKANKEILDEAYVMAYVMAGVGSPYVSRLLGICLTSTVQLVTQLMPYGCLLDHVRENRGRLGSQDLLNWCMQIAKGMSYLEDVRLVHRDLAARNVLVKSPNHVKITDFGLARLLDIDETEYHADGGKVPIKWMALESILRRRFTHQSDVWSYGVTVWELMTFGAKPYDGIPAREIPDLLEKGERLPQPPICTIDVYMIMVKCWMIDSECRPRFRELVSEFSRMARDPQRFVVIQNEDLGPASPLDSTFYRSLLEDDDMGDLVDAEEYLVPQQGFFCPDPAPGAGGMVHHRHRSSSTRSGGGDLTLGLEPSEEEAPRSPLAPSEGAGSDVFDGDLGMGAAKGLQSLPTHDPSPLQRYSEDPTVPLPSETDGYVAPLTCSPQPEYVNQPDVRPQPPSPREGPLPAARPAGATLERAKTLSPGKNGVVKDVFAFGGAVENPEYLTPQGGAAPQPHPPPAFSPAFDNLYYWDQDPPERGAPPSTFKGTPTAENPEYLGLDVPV
In a further test the target is EGFR (Homo sapiens (Human), UniProt P00533). Nature of the test: ErbB enzyme assay (CisBio HTRF KinEASE-TK), Assay 3. The class given is biochemical. How it is done: Compound potencies were determined using CisBio's HTRF Kinease-TK assay technology. The kinases were incubated with 250 nM TK-substrate biotin (CisBio, part of cat #62TK0PEC) at 1 mM ATP along with test compounds in a buffer consisting of 25 mM HEPES, pH 7.4, 10 mM MgCl2, 0.01% Triton X-100, and 2% DMSO in a volume of 8 μL. Compounds were prepared as a three-fold serial dilution in DMSO and added to the assay to give the appropriate final concentration. After 30-minute incubation at 22° C., the reaction was quenched by adding 8 μL of quench solution containing 62.5 nM Sa-XL665 and 0.25× TK-Ab-Cryptate in HTRF detection buffer (all from CisBio, part of cat #62TK0PEC). After a 1-hour incubation at 22° C., the extent of reaction was determined using a PerkinElmer EnVision multimode plate reader via HTRF dual wavelength detection, and the percent of control (POC) was calculated using a ratiometric emission factor. One hundred POC was determined using DMSO only samples (no compound present), and 0 POC was determined using pre-quenched control reactions. A 4-parameter logistic curve was fit to the POC values as a function of the concentration of compound, and the IC50 value was the point where the best-fit curve crossed 50 POC.
Sequence of EGFR (P00533 25-1210): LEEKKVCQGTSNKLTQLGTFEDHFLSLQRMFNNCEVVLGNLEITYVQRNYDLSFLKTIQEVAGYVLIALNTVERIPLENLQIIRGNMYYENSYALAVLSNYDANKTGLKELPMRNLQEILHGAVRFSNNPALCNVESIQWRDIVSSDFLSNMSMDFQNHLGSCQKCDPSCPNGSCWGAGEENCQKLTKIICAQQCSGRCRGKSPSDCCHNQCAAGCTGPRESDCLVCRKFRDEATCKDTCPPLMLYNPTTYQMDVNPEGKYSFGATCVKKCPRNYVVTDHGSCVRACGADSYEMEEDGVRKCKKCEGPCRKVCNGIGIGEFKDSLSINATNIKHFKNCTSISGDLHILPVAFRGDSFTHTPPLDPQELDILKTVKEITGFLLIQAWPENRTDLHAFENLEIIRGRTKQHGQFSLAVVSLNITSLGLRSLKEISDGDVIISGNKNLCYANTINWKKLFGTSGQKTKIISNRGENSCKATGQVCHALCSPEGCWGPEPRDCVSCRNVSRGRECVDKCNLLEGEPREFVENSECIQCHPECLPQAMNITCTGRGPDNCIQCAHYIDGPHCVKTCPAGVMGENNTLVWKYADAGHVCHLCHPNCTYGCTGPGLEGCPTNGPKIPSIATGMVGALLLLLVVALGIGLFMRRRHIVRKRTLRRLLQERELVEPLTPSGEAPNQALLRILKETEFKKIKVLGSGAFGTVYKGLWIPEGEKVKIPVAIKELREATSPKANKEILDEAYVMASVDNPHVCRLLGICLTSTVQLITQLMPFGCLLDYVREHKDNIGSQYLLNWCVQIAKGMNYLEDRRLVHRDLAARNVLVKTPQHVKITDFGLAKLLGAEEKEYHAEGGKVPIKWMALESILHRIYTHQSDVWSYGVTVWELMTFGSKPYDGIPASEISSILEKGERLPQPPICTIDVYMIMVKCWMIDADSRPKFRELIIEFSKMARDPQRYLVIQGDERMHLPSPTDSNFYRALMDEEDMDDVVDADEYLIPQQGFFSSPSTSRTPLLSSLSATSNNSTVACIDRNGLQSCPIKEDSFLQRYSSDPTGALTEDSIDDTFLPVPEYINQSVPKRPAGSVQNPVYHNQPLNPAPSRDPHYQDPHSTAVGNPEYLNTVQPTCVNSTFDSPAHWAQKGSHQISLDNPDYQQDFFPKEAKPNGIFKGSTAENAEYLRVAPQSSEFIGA
as §1

In test [2] the target is ErbB2 with Exon 20 YVMA insertion (HER2-YVMA) (Homo sapiens (Human), UniProt P04626, INS775YVMA). Nature of the test: Cellular phosphorylation assay, constitutive ErbB2 phosphorylation (Y1196) in engineered NIH 3T3 cells, Assay 4. The class given is cell-based. How it is done: Serially diluted compounds were added to the plates for 1 hour at 37° C./5% CO2. EGFR WT cells were stimulated with 100 ng/ml rEGF for an additional 10 minutes at 37° C./5% CO2. After compound incubation, medium was removed from the cells, which were then fixed in 3.7% formaldehyde in PBS at room temperature for 20 minutes. Following a wash with PBS, cells were permeabilized with 100% methanol at room temperature for 10 minutes. Cells were then washed with PBS/0.05% Tween-20 and blocked with Odyssey blocking buffer (LI-COR Biosciences) for at least 1 hour at room temperature. Antibodies to phosphorylated ErbB2 (Y1196, Cell Signaling #6942) or phosphorylated EGFR (Y1068, Cell Signaling #3777) and GAPDH (Millipore #MAB374) were added to the cells in blocking buffer containing 0.05% azide and incubated overnight at 4° C. After washing with PBS/0.05° i° Tween-20, the cells were incubated with fluorescently labeled secondary anti-rabbit antibody (LiCOR, IRDye 800CW #926-32211) and anti-mouse antibody (Molecular Probes, Alexa Fluor 680 #A21058) for 1 hour at room temperature in the dark. Cells were then washed and analyzed for fluorescence at both wavelengths using the Odyssey Infrared Imaging System (LI-COR Biosciences). Phosphorylated ErbB2 and EGFR signal was normalized to GAPDH signal to generate curves and calculate IC50 values.
Sequence of ErbB2 with Exon 20 YVMA insertion (HER2-YVMA) (P04626 other isoform, or with tags, fused parts or gaps ins YVMA behind 775): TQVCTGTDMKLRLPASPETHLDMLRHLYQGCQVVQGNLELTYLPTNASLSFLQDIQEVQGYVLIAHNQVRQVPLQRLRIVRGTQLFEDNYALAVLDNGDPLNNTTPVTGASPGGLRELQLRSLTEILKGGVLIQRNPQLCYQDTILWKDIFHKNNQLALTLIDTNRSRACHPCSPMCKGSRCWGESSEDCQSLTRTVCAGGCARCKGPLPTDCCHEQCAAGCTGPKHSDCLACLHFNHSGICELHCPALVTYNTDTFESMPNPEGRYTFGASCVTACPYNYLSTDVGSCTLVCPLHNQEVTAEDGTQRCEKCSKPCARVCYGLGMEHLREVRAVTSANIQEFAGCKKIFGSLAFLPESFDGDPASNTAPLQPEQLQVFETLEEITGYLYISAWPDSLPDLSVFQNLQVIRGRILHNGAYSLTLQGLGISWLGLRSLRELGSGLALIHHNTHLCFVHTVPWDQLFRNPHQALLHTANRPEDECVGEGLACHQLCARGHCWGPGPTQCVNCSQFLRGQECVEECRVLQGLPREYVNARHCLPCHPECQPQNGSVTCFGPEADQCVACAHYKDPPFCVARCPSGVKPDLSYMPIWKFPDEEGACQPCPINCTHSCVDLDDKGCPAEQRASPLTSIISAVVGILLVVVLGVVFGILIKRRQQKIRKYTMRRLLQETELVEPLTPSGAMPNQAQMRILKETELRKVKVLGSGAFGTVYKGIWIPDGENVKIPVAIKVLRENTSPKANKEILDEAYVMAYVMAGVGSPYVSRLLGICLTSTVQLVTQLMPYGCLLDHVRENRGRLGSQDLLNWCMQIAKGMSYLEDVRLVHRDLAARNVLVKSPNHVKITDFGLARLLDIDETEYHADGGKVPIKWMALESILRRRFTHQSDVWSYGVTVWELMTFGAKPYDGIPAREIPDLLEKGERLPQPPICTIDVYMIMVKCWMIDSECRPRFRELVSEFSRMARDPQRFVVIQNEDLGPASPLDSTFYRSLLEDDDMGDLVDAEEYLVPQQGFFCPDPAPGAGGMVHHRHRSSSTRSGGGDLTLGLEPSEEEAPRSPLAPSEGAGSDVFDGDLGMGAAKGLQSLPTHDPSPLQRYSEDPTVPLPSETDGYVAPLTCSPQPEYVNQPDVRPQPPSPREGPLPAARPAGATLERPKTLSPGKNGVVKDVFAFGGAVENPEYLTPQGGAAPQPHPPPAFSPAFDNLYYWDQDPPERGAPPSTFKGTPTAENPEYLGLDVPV

Sequence of ErbB2 WT (P04626 23-1255): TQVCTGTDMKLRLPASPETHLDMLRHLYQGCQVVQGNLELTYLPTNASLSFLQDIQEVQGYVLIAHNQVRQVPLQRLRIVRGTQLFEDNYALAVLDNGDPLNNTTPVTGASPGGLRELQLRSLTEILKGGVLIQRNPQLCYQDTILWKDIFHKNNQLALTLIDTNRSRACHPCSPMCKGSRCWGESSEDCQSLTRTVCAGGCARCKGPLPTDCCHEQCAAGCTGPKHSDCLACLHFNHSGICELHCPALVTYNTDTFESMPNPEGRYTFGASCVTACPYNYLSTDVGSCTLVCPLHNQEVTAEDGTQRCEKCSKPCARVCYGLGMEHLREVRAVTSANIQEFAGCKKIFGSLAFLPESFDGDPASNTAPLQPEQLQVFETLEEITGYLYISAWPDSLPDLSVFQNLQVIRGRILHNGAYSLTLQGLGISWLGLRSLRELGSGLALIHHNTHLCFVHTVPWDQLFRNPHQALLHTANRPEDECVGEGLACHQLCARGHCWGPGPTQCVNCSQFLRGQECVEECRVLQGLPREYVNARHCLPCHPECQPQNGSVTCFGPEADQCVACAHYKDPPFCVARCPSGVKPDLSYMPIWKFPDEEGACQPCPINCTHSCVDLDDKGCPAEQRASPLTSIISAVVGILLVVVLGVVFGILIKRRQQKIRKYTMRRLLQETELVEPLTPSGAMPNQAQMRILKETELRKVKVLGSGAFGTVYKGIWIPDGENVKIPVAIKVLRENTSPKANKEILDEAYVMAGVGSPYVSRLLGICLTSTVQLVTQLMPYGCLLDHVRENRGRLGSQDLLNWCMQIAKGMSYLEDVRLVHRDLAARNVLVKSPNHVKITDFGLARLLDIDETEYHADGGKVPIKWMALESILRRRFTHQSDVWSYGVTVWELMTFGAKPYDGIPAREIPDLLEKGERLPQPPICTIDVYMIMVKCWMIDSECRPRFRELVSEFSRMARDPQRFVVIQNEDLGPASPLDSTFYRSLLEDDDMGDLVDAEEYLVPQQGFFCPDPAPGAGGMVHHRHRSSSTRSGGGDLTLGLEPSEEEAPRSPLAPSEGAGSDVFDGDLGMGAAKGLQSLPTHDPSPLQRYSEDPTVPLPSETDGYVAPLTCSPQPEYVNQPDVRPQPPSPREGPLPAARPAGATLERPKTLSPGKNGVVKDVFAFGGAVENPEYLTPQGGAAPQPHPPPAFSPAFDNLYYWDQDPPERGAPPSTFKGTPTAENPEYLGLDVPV

On to `Cc1cc(Nc2ncnc3cnc(N4CCCC(OC(F)F)C4)nc23)ccc1Oc1ccc2c(c1)ncn2C` (racemic) [Example 40, 6-(3-(difluoromethoxy)piperidin-1-yl)-N-(3-methyl-4-((1-methyl-1H-benzo[d]imidazol-5-yl)oxy)phenyl)pyrimido[5,4-d]pyrimidin-4-amine], for which the half-inhibitory concentration (IC50) is 145 nM against ErbB2 WT, 71.5 nM in test [1], not below 10000 nM at EGFR and 91.5 nM in test [2].

On to `Cc1cc(Nc2ncnc3cnc(N4CC5(CCOC5)C4)nc23)ccc1Oc1ccc2c(c1)ncn2C` [Example 21, N-(3-methyl-4-((1-methyl-1H-benzo[d]imidazol-5-yl)oxy)phenyl)-6-(6-oxa-2-azaspiro[3.4]octan-2-yl)pyrimido[5,4-d]pyrimidin-4-amine], for which the IC50 against ErbB2 WT is 98.4 nM; in test [1] it was 33.7 nM; against EGFR, 1000 nM; in test [2] it was 82.7 nM.

For the molecule `CC(=O)N1CC2CC(C1)N2c1ncc2ncnc(Nc3ccc(Oc4ccc5c(c4)ncn5C)c(C)c3)c2n1` [Example 23, 1-(6-(8-((3-methyl-4-((1-methyl-1H-benzo[d]imidazol-5-yl)oxy)phenyl)amino)pyrimido[5,4-d]pyrimidin-2-yl)-3,6-diazabicyclo[3.1.1]heptan-3-yl)ethan-1-one], the half-inhibitory concentration (IC50) against ErbB2 WT is 1340 nM; in test [1], 313 nM; against EGFR, not below 10000 nM; in test [2], 717 nM.

For the molecule `Cc1cc(Nc2ncnc3cnc(N4CC5CC(C4)N5C)nc23)ccc1Oc1ccc2c(c1)ncn2C` [Example 33, N-(3-methyl-4-((1-methyl-1H-benzo[d]imidazol-5-yl)oxy)phenyl)-6-(6-methyl-3,6-diazabicyclo[3.1.1]heptan-3-yl)pyrimido[5,4-d]pyrimidin-4-amine], the IC50 was 371 nM on ErbB2 WT, 100 nM in test [1], not below 10000 nM against EGFR and 583 nM in test [2].

Consider `Cc1cc(Nc2ncnc3cnc(N4CC(C(F)F)C4)nc23)ccc1Oc1ccc2c(c1)ncn2C` [Example 37, 6-(3-(difluoromethyl)azetidin-1-yl)-N-(3-methyl-4-((1-methyl-1H-benzo[d]imidazol-5-yl)oxy)phenyl)pyrimido[5,4-d]pyrimidin-4-amine], for which the 50% inhibitory concentration (IC50) on ErbB2 WT was 393 nM; in test [1], 78.8 nM; against EGFR, not below 10000 nM; in test [2], 174 nM.

For the molecule `Cc1cc(Nc2ncnc3cnc(N4CC5CC(C5)C4)nc23)ccc1Oc1ccc2c(c1)ncn2C` [Example 39, 6-(3-azabicyclo[3.1.1]heptan-3-yl)-N-(3-methyl-4-((1-methyl-1H-benzo[d]imidazol-5-yl)oxy)phenyl)pyrimido[5,4-d]pyrimidin-4-amine], the half-maximal inhibitory concentration (IC50) against ErbB2 WT is 358 nM; in test [1] it was 199 nM; on EGFR, not below 10000 nM; in test [2], 292 nM.

With `Cc1cnc(-c2ncc3ncnc(Nc4ccc(Oc5ccc6c(c5)ncn6C)c(C)c4)c3n2)s1` [Example 41, N-(3-methyl-4-((1-methyl-1H-benzo[d]imidazol-5-yl)oxy)phenyl)-6-(5-methylthiazol-2-yl)pyrimido[5,4-d]pyrimidin-4-amine], the half-inhibitory concentration (IC50) at ErbB2 WT is 234 nM; in test [1], 196 nM; against EGFR, not below 10000 nM; in test [2], 53 nM.

Regarding `COC1CN(c2ncc3ncnc(Nc4ccc(Oc5ccc6c(c5)ncn6C)c(C)c4)c3n2)C1` [Example 43, 6-(3-methoxyazetidin-1-yl)-N-(3-methyl-4-((1-methyl-1H-benzo[d]imidazol-5-yl)oxy)phenyl)pyrimido[5,4-d]pyrimidin-4-amine], the IC50 against ErbB2 WT is 59.8 nM; in test [1] it was 28.8 nM; at EGFR, not below 10000 nM; in test [2] it was 92.1 nM.

With `Cc1cc(Nc2ncnc3cnc(NC4CCC4(F)F)nc23)ccc1Oc1ccc2c(c1)ncn2C` (centres unmarked) [Example 52, N2-(2,2-difluorocyclobutyl)-N8-(3-methyl-4-((1-methyl-1H-benzo[d]imidazol-5-yl)oxy)phenyl)pyrimido[5,4-d]pyrimidine-2,8-diamine], the IC50 against ErbB2 WT was 317 nM; in test [1] it was 100 nM; against EGFR it was not below 10000 nM; in test [2] it was 160 nM.

In the case of `Cc1cc(Nc2ncnc3cnc(N4CCC[C@H]4C(F)F)nc23)ccc1Oc1ccc2c(c1)ncn2C` [Example 55, (S)-6-(2-(difluoromethyl)pyrrolidin-1-yl)-N-(3-methyl-4-((1-methyl-1H-benzo[d]imidazol-5-yl)oxy)phenyl)pyrimido[5,4-d]pyrimidin-4-amine], the 50% inhibitory concentration (IC50) at ErbB2 WT is 260 nM; in test [1], 110 nM; on EGFR, not below 10000 nM; in test [2], 98.4 nM.

`Cc1cc(Nc2ncnc3cnc(N4CCC[C@@H]4C(F)F)nc23)ccc1Oc1ccc2c(c1)ncn2C` [Example 56, (R)-6-(2-(difluoromethyl)pyrrolidin-1-yl)-N-(3-methyl-4-((1-methyl-1H-benzo[d]imidazol-5-yl)oxy)phenyl)pyrimido[5,4-d]pyrimidin-4-amine]: the concentration for half-maximal inhibition (IC50) on ErbB2 WT is 403 nM; in test [1], 205 nM; against EGFR, not below 10000 nM; in test [2] it was 105 nM.

Take `Cc1cc(Nc2ncnc3cnc(N[C@@H](C)COC(F)(F)F)nc23)ccc1Oc1ccc2c(c1)ncn2C` [Example 63, (S)—N8-(3-methyl-4-((1-methyl-1H-benzo[d]imidazol-5-yl)oxy)phenyl)-N2-(1-(trifluoromethoxy)propan-2-yl)pyrimido[5,4-d]pyrimidine-2,8-diamine]: the IC50 on ErbB2 WT is 862 nM; in test [1] it was 195 nM; at EGFR, not below 10000 nM; in test [2] it was 191 nM.

On to `Cc1cc(Nc2ncnc3cnc(O[C@@H]4CNC[C@@H]4F)nc23)ccc1Oc1ccc2c(c1)ncn2C` [Example 86, 6-(((3R,4S)-4-fluoropyrrolidin-3-yl)oxy)-N-(3-methyl-4-((1-methyl-1H-benzo[d]imidazol-5-yl)oxy)phenyl)pyrimido[5,4-d]pyrimidin-4-amine], for which the half-inhibitory concentration (IC50) at ErbB2 WT was 301 nM; against EGFR it was not below 10000 nM; in test [2], 261 nM.

For `Cc1cc(Nc2ncnc3cnc(N(C)c4cnn(C)c4)nc23)ccc1Oc1ccc2c(c1)ncn2C` [Example 108, N2-methyl-N2-(1-methyl-1H-pyrazol-4-yl)-N8-(3-methyl-4-((1-methyl-1H-benzo[d]imidazol-5-yl)oxy)phenyl)pyrimido[5,4-d]pyrimidine-2,8-diamine], the IC50 against ErbB2 WT turned out to be 38.9 nM; in test [1], 38.4 nM; at EGFR, 4310 nM.

Consider `Cc1c(Oc2ccn3ncnc3c2)ccc(Nc2ncnc3cnc(N4C[C@@H]5CC4CO5)nc23)c1F` [Example 313], for which the IC50 amounted to 40.4 nM against ErbB2 WT and 21.3 nM in test [1].

Regarding `Cc1cc(Nc2ncnc3cnc(N(C)Cc4ccccc4)nc23)ccc1Oc1ccc2c(c1)ncn2C` [Example 331], the half-maximal inhibitory concentration (IC50) is 389 nM on ErbB2 WT, 406 nM in test [1] and not below 10000 nM against EGFR.

Take `Cc1cc(Nc2ncnc3cnc(N(C)C4CCCOC4)nc23)ccc1Oc1ccc2c(c1)ncn2C` (centres unmarked) [Example 473]: the results for the IC50 (against ErbB2 WT; in test [1]) were 20 nM and 21.6 nM, respectively.

Molecule `Cc1cc(Nc2ncnc3cnc(N4CCN(C)[C@H](C)C4)nc23)ccc1Oc1ccc2c(c1)ncn2C` [Example 490] registered an IC50 on EGFR not below 10000 nM.
